In PubChem BioAssay (NCI) one finds TGI data, which are given here for 11 compounds.

Test systems include 786-0 renal; CAKI-1 renal; DU-145 prostate; HCT-116 colon; HT29 colon; OVCAR-5 ovarian; OVCAR-8 ovarian; RPMI-8226 leukemia; SK-MEL-2 melanoma; SK-MEL-28 melanoma; SN12C renal; U251 CNS.
Test in all cases: NCI anticancer screen, dose series, 48 h

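Dose response: 5 concentrations. Exposure: 48 h. Format: 96-well plates. Endpoint: linear interpolation; highest concentration if not reached. TGI: total growth inhibition.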 Bounds are passed on as bounds.

For the compound `CN(C)c1ccc(NN=C2SC(=Nc3ccccc3)C(=Nc3ccccc3)S2)cc1`, the TGI in the assay on 786-0 renal, in the assay on CAKI-1 renal, in the assay on DU-145 prostate, in the assay with HCT-116 colon, in the assay with HT29 colon and with OVCAR-5 ovarian was greater than 100 µM in each case. Besides, the TGI in the assay with OVCAR-8 ovarian, in the assay with RPMI-8226 leukemia, with SK-MEL-2 melanoma, in the assay on SK-MEL-28 melanoma, in the assay with SN12C renal and in the assay with U251 CNS was greater than 100 µM in each case.
Turning to `O=C(NNCC(O)COc1ccccc1)c1ccccc1` (configuration not stated), the TGI in the assay with 786-0 renal, with CAKI-1 renal, in the assay on DU-145 prostate, in the assay with HCT-116 colon, in the assay with HT29 colon and in the assay on OVCAR-5 ovarian was greater than 100 µM throughout. Moreover, the TGI with OVCAR-8 ovarian, in the assay with RPMI-8226 leukemia, in the assay with SK-MEL-2 melanoma, with SK-MEL-28 melanoma, in the assay with SN12C renal and with U251 CNS was greater than 100 µM in each case.
Regarding `CCOC(=O)C1=NOC2(C=C(Br)C(=O)C(Br)=C2)C1`, the TGI came out at 1.76 µM with 786-0 renal; 2.88 µM in the assay with CAKI-1 renal; 17.8 µM with DU-145 prostate; 2.63 µM with HCT-116 colon; 4.68 µM with HT29 colon; 12.6 µM with OVCAR-5 ovarian. Moreover, the TGI in the assay with OVCAR-8 ovarian came to 5.3 µM; with RPMI-8226 leukemia, 2.56 µM; in the assay with SK-MEL-2 melanoma, 15 µM; in the assay with SK-MEL-28 melanoma, 24.7 µM; in the assay on SN12C renal it was 19.6 µM; in the assay with U251 CNS, 26.3 µM.
As for `COC1=CC(=O)C2=C(C1=O)[C@H]1CC[C@]3(C)[C@@H](O)CC[C@H]3[C@@H]1CC2`, the TGI amounted to 37.8 µM with 786-0 renal; 57.4 µM in the assay on CAKI-1 renal; 31 µM with DU-145 prostate; 30.7 µM in the assay on HCT-116 colon; 19 µM with HT29 colon; 33.6 µM in the assay on OVCAR-5 ovarian. Further, the TGI with OVCAR-8 ovarian was 31.6 µM; in the assay with RPMI-8226 leukemia it was 44.4 µM; in the assay on SK-MEL-2 melanoma, 26.8 µM; in the assay with SK-MEL-28 melanoma, 38.3 µM; with SN12C renal, 30.6 µM; in the assay with U251 CNS, 31.3 µM.
Consider `NCCSS(=O)(=O)CCN`, for which the TGI in the assay with 786-0 renal, in the assay on CAKI-1 renal, in the assay on DU-145 prostate, in the assay on HCT-116 colon, in the assay with HT29 colon and in the assay on OVCAR-5 ovarian was greater than 100 µM in each case. Further, the TGI with OVCAR-8 ovarian, in the assay on RPMI-8226 leukemia, in the assay on SK-MEL-2 melanoma, in the assay on SK-MEL-28 melanoma, with SN12C renal and with U251 CNS was greater than 100 µM throughout.
For `C=CCN1C(=O)/C(=C/c2cccs2)N=C1SC/C=C/C`, the TGI in the assay on 786-0 renal, in the assay with CAKI-1 renal, with DU-145 prostate, in the assay on HCT-116 colon, in the assay with HT29 colon and in the assay on OVCAR-5 ovarian was greater than 100 µM each time. Besides, the TGI in the assay on OVCAR-8 ovarian was greater than 100 µM; in the assay on RPMI-8226 leukemia, 40.6 µM; with SK-MEL-2 melanoma, 65.8 µM; in the assay on SK-MEL-28 melanoma, greater than 100 µM; with SN12C renal it was 86.6 µM; in the assay on U251 CNS, greater than 100 µM.
Turning to `O=C(c1ccccc1)c1ccc2nc(-c3c(Cl)c(Cl)c(Cl)c(Cl)c3C(=O)N/N=C/c3ccc(Cl)cc3)[nH]c2c1`, the TGI in the assay with 786-0 renal is 99.6 µM; in the assay on CAKI-1 renal it was greater than 100 µM; with DU-145 prostate it was greater than 100 µM; in the assay on HCT-116 colon, greater than 100 µM; in the assay with HT29 colon it was greater than 100 µM; with OVCAR-5 ovarian, greater than 100 µM. For the same compound, the TGI in the assay with OVCAR-8 ovarian is greater than 100 µM; with RPMI-8226 leukemia, 51.3 µM; in the assay on SK-MEL-2 melanoma, 72.4 µM; in the assay on SK-MEL-28 melanoma, greater than 100 µM; with SN12C renal, greater than 100 µM; in the assay on U251 CNS it was greater than 100 µM.
As to `Cc1cc(C)c(-n2[nH]c(=O)n(C)c2=O)c(C)c1`, the TGI in the assay on 786-0 renal, with CAKI-1 renal, in the assay with DU-145 prostate, in the assay on HCT-116 colon, in the assay on HT29 colon and in the assay with OVCAR-5 ovarian was greater than 100 µM throughout. The TGI in the assay with OVCAR-8 ovarian, with RPMI-8226 leukemia, in the assay on SK-MEL-2 melanoma, in the assay on SK-MEL-28 melanoma, in the assay on SN12C renal and with U251 CNS was greater than 100 µM in each case.
Consider `COc1cc(C2SCC(=O)N2c2cccc(Cl)c2)cc(OC)c1OC` (configuration not stated), for which the TGI with 786-0 renal, with CAKI-1 renal, with DU-145 prostate, in the assay on HCT-116 colon, in the assay with HT29 colon and with OVCAR-5 ovarian was greater than 100 µM in each case. The TGI in the assay on OVCAR-8 ovarian, in the assay on RPMI-8226 leukemia, in the assay with SK-MEL-2 melanoma, in the assay with SK-MEL-28 melanoma, in the assay with SN12C renal and in the assay on U251 CNS was greater than 100 µM throughout.
In the case of `CNC(=O)C1(N)c2ccccc2C=Cc2ccccc21`, the TGI in the assay with 786-0 renal, in the assay on CAKI-1 renal, in the assay on DU-145 prostate, with HCT-116 colon, in the assay with HT29 colon and in the assay on OVCAR-5 ovarian was greater than 100 µM throughout. The TGI in the assay with OVCAR-8 ovarian, with RPMI-8226 leukemia, with SK-MEL-2 melanoma, in the assay with SK-MEL-28 melanoma, in the assay on SN12C renal and in the assay with U251 CNS was greater than 100 µM in each case.
Regarding `Nc1n[n+](CC(=O)c2ccccc2)c2sc(-c3ccccc3)nn12`, the TGI in the assay with 786-0 renal, in the assay on CAKI-1 renal, with DU-145 prostate, with HCT-116 colon, in the assay with HT29 colon and with OVCAR-5 ovarian was greater than 100 µM in each case. Moreover, the TGI in the assay with OVCAR-8 ovarian, in the assay on RPMI-8226 leukemia, with SK-MEL-2 melanoma, with SK-MEL-28 melanoma, in the assay with SN12C renal and in the assay on U251 CNS was greater than 100 µM throughout.
